In patent US10258043B2, “Pesticide compositions and methods for controlling invertebrate pests” (Adama Makhteshim Ltd., priority 2012, dated 2019):

Tested on: German cockroaches
Assay: Second series of evaluations: pyriproxyfen and novaluron alone and in combination on three substrates
Assay type: in vivo
Conditions: preliminary results
Protocol: Ceramic tile, vinyl tile, and unpainted plywood panels measuring 6″×6″ were cleaned using soapy water to remove any residue left over from the manufacturing process and left to dry overnight. Six (6) L plastic storage boxes (Sterlite®) with lids were purchased from a local hardware store (Home Depot, Riverbank, Calif.) and cleaned as well and allowed to dry. Each substrate was treated with 0.95 mL of test material (1 gallon/1,000 ft^2 equivalent) prepared in accordance with Example 1 using a Pipetteman 1000, with the material being evenly distributed over the entire surface of the substrate using an acid brush. The material was allowed to dry and the substrates were placed into the plastic storage boxes, one per box. A 5 cm Petri dish was filled with dog food and a slice of orange for nourishment, and a water tube was added for moisture. The food dish was placed directly on the treated substrate to force exposure of the cockroaches. A 6″ rolled piece of corrugated cardboard was placed in each replicate for harborage. A thin layer of petroleum jelly/mineral oil was applied to the rim to prevent escape.
Approximately forty (40) second and third instar nymphs were placed in each replicate and the lid was placed on top. Five replicates were prepared, one for each of the four treatments set forth in Table 2 and an untreated control. […]

SMILES	Morphological characteristics of juvenoid activity (individuals alive in these treatment groups)	Molting abnormalities of mid-instar cockroaches (all three substrates)
CC(COc1ccc(Oc2ccccc2)cc1)Oc1ccccn1 (centres unmarked) [pyriproxyfen, 4-phenoxyphenyl 2-(2-pyridyloxy)propyl ether]	twisted wings and darkened cuticle	
O=C(NC(=O)c1c(F)cccc1F)Nc1ccc(OC(F)(F)C(F)OC(F)(F)F)c(Cl)c1 (racemic) [novaluron, (RS)-1-[3-chloro-4-(1,1,2-trifluoro-2-trifluoromethoxyethoxy)phenyl]-3-(2,6-difluorobenzoyl)urea]		molting abnormalities
